“And” between values parts separate entries of the source, which are not always exact repeats. Equal entries are not always repeated. Where two headings read alike, the source gives them in different places. Marks after values point to notes of the source that are not given here.
Legend:
[1] = test system: collagen type II-induced arthritis (CIA); settings: mouse, in vivo
DTH response in mice = format: in vivo; settings: for Inhibition of mouse ear swelling: DTH, 24 h after challenge
Method: The anti-inflammatory and anti-allergic effects of compounds 1a and 1c were assessed in a mouse model of skin delayed-type hypersensitivity (DTH) reactions and compared to a vehicle control and to the reference drug dexamethasone. DTH reactions are antigen-specific cell-mediated immune responses, driven primarily by T helper type 1 (Th1) cells, similar to the tuberculin immunization response. The immune reaction induced by an ovalbumin challenge to animals previously sensitized with ovalbumin in Complete Freund's Adjuvant, is characterized by swelling (edema) at the site of challenge, e.g. the mouse ear. Dexamethasone, an anti-inflammatory steroid, reduces cell-mediated immune responses and was employed to validate the responsiveness of the assay to pharmacological treatment.
Female BALB/cJW mice were bred at the University of Lodz, Lodz, Poland and housed in groups of 8 in makrolon cages with a 12 h light-dark cycle. Mice were given free access to food (Agropol S.j., Motycz, Poland) and water.
Sensitization: The protein antigen, ovalbumin, was reconstituted in PBS at 4 mg/ml. An ovalbumin-CFA emulsion was prepared by mixing the protein solution with the CFA suspension at a ratio of 1:1, using two Luer-lock syringes. The emulsion was tested by putting a drop of emulsion onto PBS; if the emulsion remained as a tight droplet on the PBS, the emulsion was deemed ready. Mice were sensitized by subcutaneously injecting 25 μL of emulsion into each side of the tail (100 μg ovalbumin per mouse).
Challenge: On the sixth day after sensitization, DTH was elicited by challenging animals subcutaneously (gauge 30 needle, B. Braun Melsungen, Melsungen, Germany) in the left ears with 10 μL of a 1% suspension of heat-aggregated ovalbumin (HOVA) (100 μg ovalbumin per mouse). The right ears were administered subcutaneously with PBS and served to determine the individual differences in ear thicknesses. HOVA was prepared by heating a 5% solution of ovalbumin in saline for 1 h at 80° C. with occasional swirling. After cooling to room temperature and centrifugation (400 g. 10 min at 4° C.), the pellet was washed twice with saline, resuspended at 2% in PBS and aliquots stored at −30° C. Before injection, HOVA was diluted with an equal volume of PBS and sonicated. Ear thickness was measured with a precise spring-loaded caliper (Art. No. 7309, Mitutoyo, Kawasaki, Japan) before challenge, and 24 h after challenge.
Sensitization, challenge and ear thickness measurement were performed under anesthesia (ketamine 80 mg/kg plus xylazine 8 mg/kg, intraperitoneally).
The anti-inflammatory effects of compounds 1a and 1c were compared to a vehicle control (0.5% methyl cellulose solution) and to the reference drug, dexamethasone. Test compounds were given at 25 or 100 mg/kg orally by gavage (Art. No. 432093, Harvard Apparatus GmbH, March-Hugstetten, Germany) 16 h and 3 h before sensitization and then twice daily with the final dose given 3 h prior to ear challenge (a total of 14 administrations). Dexamethasone was given at 0.1 or 1 mg/kg orally by gavage 3 h before sensitization and once daily with the final dose given 3 h prior to antigen challenge (a total of 7 administrations). All administrations were given in a volume of 10 ml/kg.
To account for individual variability, the increase in right ear thickness, before and 24 h after administration of PBS, was subtracted from the HOVA-induced increase in left ear thickness. The increase in ear thickness was calculated by the difference between ear thickness before and 24 h after antigen challenge. Percent inhibition of ear swelling was calculated according to the following formula: % inhibition=100×(IETvehicle−IETcompound)/IETvehicle where IET=(ET24 hrs pc−ETpredose)HOVA-treated ears−(ET24 hrs pc−ETpredose)PBS-treated ears • (IET, increase ear thickness; ET, ear thickness; pc, post challenge)
Mean and standard deviation (SD) were calculated from individual ear edema values. […]

[2] = test system: allergic contact dermatitis response in mice; assay: Allergic contact dermatitis (TDI) model in mice, mouse ear swelling test; format: in vivo
Method: The anti-inflammatory and anti-allergic effects of compounds 1a and 1c were assessed in a mouse model of allergic contact dermatitis, a response driven primarily by T helper type 2 (Th2) cells. […] In this model, an allergic dermatitis response is obtained by sensitizing mice to TDI and subsequently challenging them with antigen by topical administration onto the ears. A quantitative assessment of anti-inflammatory and anti-allergic effects of topically or orally administered test compounds is possible by measuring the resulting ear swelling. The advantages of the allergic contact dermatitis model (Zöllner et al., Bioessays 26:693-6 (2004)) are reproducibility and reliability (>90% of BALB/c mice respond to sensitization), a short induction protocol, quantitative assessment by measuring ear thickness, atopic dermatitis-like skin lesions can be induced, and clinically relevant pharmaceuticals, such as corticosteroids, calcineurin-inhibitors and PDE4-inhibitors, are effective in this model.
Female BALB/c-mice were obtained from Charles River (Sulzfeld, Germany) at age 8 weeks. All animals were housed in groups of eight per cage at 22° C. with a 12 h light/dark-cycle, Water and a standard diet (Altromin, Lage/Lippe, Germany) were available ad libitum. All animals were acclimatized for one week before experimental procedures were commenced.
Experimental procedures for BALB/c mice housing, TDI sensitization and challenge, and measurement of ear thickness were performed as previously described (Baumer et al., J Pharm Pharmacol, 55:1107-1114 (2003)) with the following modifications. For active sensitization, 100 μL of 5% (w/v) TDI was administered to the shaved and stripped abdominal epidermis on day one, and for the next three consecutive days, 50 μL of 5% (My) TDI was applied. The allergic reaction was boosted 21 days later by application of 50 μL of 0.5% (w/v) TDI. For the examination of test compound effects, the left ears were used for the TDI challenge (20 μL of 0.5% in acetone) and ear thickness measured 3 h before and 24 h after challenge.
Group size was n=7 mice unless otherwise stated. Test compounds were freshly prepared before administration.
Administration time: to determine optimal time for administration treatment groups were treated orally by gavage with 100 mg/kg of compound 1a or 1c (suspended in 0.5% tylose, 10 mL/kg) 1, 4 or 16 h before topical TDI challenge. One group was treated with 100 mg/kg miltefosine orally, 16 h before challenge (based on available data for optimal administration time for miltefosine) and vehicle treated mice received tylose (10 mL/kg) orally, 4 h before challenge.
Dose-response: two groups of mice were treated orally with compound 1a at 25 mg/kg or 100 mg/kg suspended in 0.5% tylose, 4 h before topical TDI challenge. Vehicle treated mice received 0.5% tylose orally 4 h before challenge. As a positive control, dexamethasone was administered in saline solution at 1 mg/kg or 3 mg/kg, 2 h and 30 min before challenge and 1 h after challenge. The dose and dosing scheme for dexamethasone was based on previous experience showing a maximal effect in this model.
Compound 1a was administered to two groups of mice topically in 20 μl of a 2% or 6% solution in propyleneglycol. The suspension was heated to 60° C. and mixed using a thermomixer (Eppendorf) until it became clear. The solution was applied, 2 h before topical TDI challenge by administration of 10 μl onto each of the inner and outer surfaces of the left ears. A vehicle group (17=5) was treated with propyleneglycol. As a positive control, diflorasone, diacetate was administered at 0.01% (low dose) and 0.05% (high dose) in 20 μl acetone, 2 h before challenge. A basal control group was left untreated.
Mean and standard error of the mean (SEM) were calculated from individual ear edema values. […]

RBL-2H3 cells [3] = assay: Inhibition of mast cell degranulation (β-hexosaminidase release); format: cell-based; settings: Rattus norvegicus, IgE-sensitized RBL-2H3 cells, 1 h with compound, antigen (DNP-HSA) 15 min
From the text: Mast cells are key effector cells involved in allergic and inflammatory diseases, and the Rat Basophilic Leukemia clone 2H3 (RBL-2H3) cell line is a commonly used model of allergen dependent immune modulator release (degranulation) in mast cells. On their surface, they express the high affinity receptor for IgE (FcεRI). Upon binding of antigen-specific IgE to the receptor, cells become sensitized to the IgE specific antigen (allergen). When IgE-sensitized cells then encounter multivalent antigen, the antigen clusters IgE-FcεRI complexes and initiates a signal transduction cascade that leads to degranulation, that is, the release of inflammatory mediators, such as cytokines, eicosanoids, histamine and enzymes. The assay can be used as a screening method to identify immune-modulating compounds, in particular compounds useful in the medical management of allergic and inflammatory diseases and asthma, β-hexosaminidase was previously shown to be released with the same kinetics as histamine (Schwartz et al., J Immunology; 123:1445-1450 (1979)), thus offering a simple means to monitor degranulation. […]
MUG substrate solution, 100 μl, were added to supernatant and lysate samples and plates were incubated 30 min at 37° C. […] Fluorescence was measured at 365 nm excitation and 440 nm emission wavelengths. […]

RBL-2H3 cells [4] = assay: Maximum tolerated concentration (cytotoxicity by lactate dehydrogenase release); format: cell-based, Rat
From the text: The safety index (SI) of a test compound is the ratio between the maximum tolerated concentration and the IC50 and is used as a measure of the relative safety of the test compound.

spleen and thymus weights [1]	Structure (SMILES)	Inhibition of mouse ear swelling (DTH response in mice; 0.1 mg/kg orally once daily (7 administrations))	Inhibition of mouse ear swelling (DTH response in mice; 1.0 mg/kg orally once daily (7 administrations))	loss in body weight (DTH response in mice; mouse, in vivo, po, 1 mg/kg)	Inhibition of mouse ear swelling ([2]; dose-response study, 1 mg/kg, 2 h and 30 min before and 1 h after challenge)	Inhibition of mouse ear swelling ([2]; dose-response study, 1 mg/kg, 2 h and 30 min before and 1 h after challenge, listed as dexamethasone)	Inhibition of mouse ear swelling ([2]; dose-response study, 3 mg/kg, 2 h and 30 min before and 1 h after challenge)	Inhibition of mouse ear swelling ([2]; dose-response study, 3 mg/kg, 2 h and 30 min before and 1 h after challenge, listed as dexamethasone)	inhibitory efficacy relative to that of 1a at its optimal administration time of 4 h ([2]; 100 mg/kg oral, 16 h before challenge vs 1a 4 h)	inhibitory efficacy relative to that of compound 1c at its optimal administration time of 4 h ([2]; 100 mg/kg oral, 16 h before challenge vs 1c 4 h)	Inhibition of mouse ear swelling ([2]; administration time study, 100 mg/kg oral, 16 h before TDI challenge)	IC50 (RBL-2H3 cells [3])	MTC (maximum tolerated concentration) (RBL-2H3 cells [4]; highest concentration not causing cytotoxicity (LDH release), RBL-2H3 cells)	SI (safety index) (RBL-2H3 cells [4]; ratio between MTC and IC50)
markedly reduced	C[C@@H]1C[C@H]2[C@@H]3CCC4=CC(=O)C=C[C@]4(C)[C@@]3(F)[C@@H](O)C[C@]2(C)[C@@]1(O)C(=O)CO [Dexamethasone, reference compound]	14%	53%	9%	78.6*** %	78%	87.1*** %	87%	–	–	–	–	–	–
–	CCCCCCCCCCCCCCCCOP(=O)([O-])OCC[N+](C)(C)C [Miltefosine, reference compound]	–	–	–	–	–	–	–	64%	69%	47% and 47.3^§ %	4.2 µM	25 µM	6.0

— patent publication US11453642B2, “Oxygenated amino- or ammonium-containing sulfonic acid, phosphonic acid and carboxylic acid derivatives and their medical use” (GRI BIO, INC., priority 2011, dated 2022)
